Key:
[1] = Dissolution tests of powders in DDW with predissolved polymer or combination (USP type II paddle); assay type: physicochemical; details: for incongruent indicator k(t) (molar FFA/NIC in solution): neat cocrystal
Procedure: In vitro dissolution tests were performed with a USP type II paddle apparatus (DT 126 light, Erweka GmbH, Germany) at 37 ± 0.5°C with a paddle speed of 50 rpm in 400 mL of DDW in the absence and presence of a predissolved polymer (i.e., 0.2 mg/mL of PVP-VA, 1 mg/mL of PEG, 0.2 mg/mL of SLP) or a combination of two polymers (i.e., 0.2 mg/mL PVP-VA + 1 mg/mL PEG, […]).
71.7 mg of FFA-NIC cocrystal powders with the equivalent of 50 mg FFA I powders were used in each of the dissolution tests. Samples of 1 ± 0.1 mL were withdrawn from the dissolution vessel at the predefined time points of 5, 10, 15, 30, 60, 120, 180 and 240 min. The supernatant of each of the samples was separated from the excess solids by centrifugation at 13,000 RPM for 1 min in an MSE Micro Centaur. HPLC was used to determine the concentrations of FFA and NIC in solution. Solid residues obtained from the experiments were dried at room temperature and analysed by PXRD. All experiments were repeated in triplicate.
For comparison, the above dissolution tests were also repeated using 50 mg of pure FFA I powders and 82.0 mg of FFA-TP cocrystal powders.
(§1) DPP was used to evaluate the dissolution profile of the test powders in comparison to a reference system, which is defined as,4 DPP=AUCC(t)-AUCCR(t)/AUCCR(t)×100% where AUCC(t) is the area under the curve (AUC) of a dissolution profile C(t) , indicating the amount of drug dissolved is maintained over the period of the dissolution time from 0 to t, and AUCCR(t) is the AUC of a reference dissolution profile CR(t) .
The solids were scanned by D2 phaser diffractometer (Bruker U.K. Limited, Coventry, UK) with […] radiation operating at voltage of 30 kV and current of 10 mA. The scanning angle ranged from 2°-40° of 2θ. The scanning time per step was 0.4 s. The scan step size was 0.02° of 2θ.

[2] = Dissolution tests of powder mixtures of FFA-NIC cocrystal with polymers in PBS pH 6.8 (sink); assay type: physicochemical; details: for FFA DPP: reference neat cocrystal in PBS pH 6.8; for incongruent indicator k(t) (molar FFA/NIC in solution): PBS pH 6.8, sink conditions
Procedure: Similarly, in vitro dissolution tests of the powder mixtures of 71.7 mg of the FFA-NIC cocrystals with an individual polymer or a combination in PBS pH 4.5 or PBS pH 6.8 were conducted in triplicate. The amount of a polymer used in the powder mixture was 80 mg of PVP-VA, 400 mg of PEG, or 80 mg of SLP, corresponding to their predissolved concentrations used in Section "Dissolution Tests of FFA, the Neat FFA-TP Cocrystal or FFA-NIC Cocrystal Powders in DDW in the Absence and Presence of a Predissolved Polymer or a Combination".
as §1

[3] = DDW, combination of predissolved PVP-VA and PEG
[4] = DDW, no polymer, powder dissolution

SMILES: NC(=O)c1cccnc1.O=C(O)c1ccccc1Nc1cccc(C(F)(F)F)c1 [FFA-NIC cocrystal]
- solid residues after dissolution tests (PXRD) ([1]; DDW in the absence or presence of predissolved polymers): FFA III
- FFA concentration at 240 min [1, 3]: 11.44 µg/mL
- maximum FFA concentration [1, 3]: 14.28 µg/mL
- time to generate supersaturated state of FFA concentration [1, 3]: ≤ 5 min
- solid residues after dissolution tests (PXRD) ([1]; DDW, combinations of predissolved PVP-VA and SLP at various concentrations except SLP (0.2 mg/mL) + PVP-VA (0.8 mg/mL)): FFA III alone
- incongruent indicator k(t) (molar FFA/NIC in solution) ([1]; DDW, at 5 min): 0.06
- incongruent indicator k(t) (molar FFA/NIC in solution) ([1]; DDW, at 60 min): 0.08
- FFA concentration reached within 60 min [1, 4]: 10.23 µg/mL
- FFA concentration, constant level after 60 min [1, 4]: 10.78 µg/mL
- time for FFA concentration to reach aqueous equilibrium solubility ([1]; DDW, predissolved 0.2 mg/mL PVP-VA): ≤ 15 min
- maximum FFA concentration ([1]; DDW, predissolved 0.2 mg/mL PVP-VA, at 60 min): 12.93 µg/mL
- FFA DPP (dissolution performance parameter) ([1]; DDW, predissolved PEG (1 mg/mL), 0-4 h, reference same powder in DDW): -7%
- FFA DPP (dissolution performance parameter) ([1]; DDW, predissolved PVP-VA (0.2 mg/mL), 0-4 h, reference same powder in DDW): 19%
- NIC release from cocrystal powders ([1]; DDW, predissolved PVP-VA or its combination with PEG or SLP): released completely
- FFA concentration in solution after 4 h ([1]; DDW, predissolved SLP (0.2 mg/mL)): 26.18 µg/mL
- FFA DPP (dissolution performance parameter) ([1]; DDW, predissolved SLP (0.2 mg/mL) + PVP-VA (0.1 mg/mL), reference DDW): 112%
- FFA DPP (dissolution performance parameter) ([1]; DDW, predissolved SLP (0.2 mg/mL) + PVP-VA (0.2 mg/mL), 0-4 h, reference same powder in DDW): 160%
- FFA DPP (dissolution performance parameter) ([1]; DDW, predissolved SLP (0.2 mg/mL) + PVP-VA (0.3 mg/mL), reference DDW): 296%
- FFA DPP (dissolution performance parameter) ([1]; DDW, predissolved SLP (0.2 mg/mL) + PVP-VA (0.4 mg/mL), reference DDW): 345%
- FFA DPP (dissolution performance parameter) ([1]; DDW, predissolved SLP (0.2 mg/mL) + PVP-VA (0.8 mg/mL), reference DDW): 310%
- solid residues after dissolution tests (PXRD) ([1]; DDW, predissolved SLP (0.2 mg/mL) and PVP-VA (0.8 mg/mL)): mixtures of FFA III and FFA-NIC cocrystal
- FFA DPP (dissolution performance parameter) ([1]; DDW, predissolved SLP (0.2 mg/mL), 0-4 h, reference same powder in DDW): 67%
- NIC release from cocrystal powders ([1]; DDW, single polymer of PEG or SLP): not complete
- solid residues after dissolution tests (PXRD) ([1]; SLP predissolved DDW): both FFA III and FFA-NIC cocrystal
- solid residues after dissolution ([2]; PBS pH 6.8, 37°C, after 4 h): no solid residue
- FFA DPP ([2]; PBS pH 6.8, powder mixture with PVP-VA (0.2 mg/mL)): 11%
- FFA DPP ([2]; PBS pH 6.8, powder mixture with PVP-VA (0.4 mg/mL)): 7%
- incongruent constant k(t) ([2]; PBS pH 6.8, powder mixture with PVP-VA, at 60 min): > 0.94
- FFA DPP ([2]; PBS pH 6.8, powder mixture with SLP (0.1 mg/mL) + PVP-VA (0.4 mg/mL)): 8%
- FFA DPP ([2]; PBS pH 6.8, powder mixture with SLP (0.2 mg/mL) + PVP-VA (0.2 mg/mL)): 6%
- FFA DPP ([2]; PBS pH 6.8, powder mixture with SLP (0.2 mg/mL) + PVP-VA (0.4 mg/mL)): 9%
- FFA DPP ([2]; PBS pH 6.8, powder mixture with SLP (0.2 mg/mL)): -0.1%
- incongruent indicator k(t) (molar FFA/NIC in solution) ([2]; at 5 min): 0.75
- incongruent indicator k(t) (molar FFA/NIC in solution) ([2]; at the end of dissolution): 0.94

Reference: paper PMC10447287, “Optimisation of Pharmaceutical Cocrystal Dissolution Performance through a Synergistic Precipitation Inhibition” (Pharmaceutical Research, 2023)
